Test system: 379773-124-R-J2-PDC spheroid viability
Assay: Anticancer human tumor 379773-124-R-J2-PDC patient-derived endometrial carcinoma cell line growth inhibition [POLQ]
Details: spheroids with HUVEC and MSC; for IC50: curve of first compound; for viability, T/C: stronger effect = lower value
Method in brief: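 Patient-derived tumour cells were co-cultured with HUVEC and mesenchymal stem cells as multicellular spheroids at 37 °C. They were treated with POLQ inhibitors (novobiocin, ART-558, RP6685) alone or combined with other agents. Top concentrations were at or near clinical Cmax (otherwise 10 microM; SN-38 at 1 microM), decreasing in half-log steps.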

[1] = second compound 0.0316 µM, first compound 0.0316 µM
[2] = second compound 0.0316 µM, first compound 0.1 µM
[3] = second compound 0.0316 µM, first compound 0.316 µM
[4] = second compound 0.0316 µM, first compound 1 µM
[5] = second compound 0.0316 µM, first compound 3.16 µM
[6] = second compound 0.0316 µM, first compound 10 µM
[7] = second compound 0.1 µM, first compound 0.0316 µM
[8] = second compound 0.1 µM, first compound 0.1 µM
[9] = second compound 0.1 µM, first compound 0.316 µM
[10] = second compound 0.1 µM, first compound 1 µM
[11] = second compound 0.1 µM, first compound 3.16 µM
[12] = second compound 0.1 µM, first compound 10 µM
[13] = second compound 0.316 µM, first compound 0.0316 µM
[14] = second compound 0.316 µM, first compound 0.1 µM
[15] = second compound 0.316 µM, first compound 0.316 µM
[16] = second compound 0.316 µM, first compound 1 µM
[17] = second compound 0.316 µM, first compound 3.16 µM
[18] = second compound 0.316 µM, first compound 10 µM
[19] = second compound 1 µM, first compound 0.0316 µM
[20] = second compound 1 µM, first compound 0.1 µM
[21] = second compound 1 µM, first compound 0.316 µM
[22] = second compound 1 µM, first compound 1 µM
[23] = second compound 1 µM, first compound 3.16 µM
[24] = second compound 1 µM, first compound 10 µM
[25] = second compound 3.16 µM, first compound 0.0316 µM
[26] = second compound 3.16 µM, first compound 0.1 µM
[27] = second compound 3.16 µM, first compound 0.316 µM
[28] = second compound 3.16 µM, first compound 1 µM
[29] = second compound 3.16 µM, first compound 3.16 µM
[30] = second compound 3.16 µM, first compound 10 µM
[31] = second compound 10 µM, first compound 0.0316 µM
[32] = second compound 10 µM, first compound 0.1 µM
[33] = second compound 10 µM, first compound 0.316 µM
[34] = second compound 10 µM, first compound 1 µM
[35] = second compound 10 µM, first compound 3.16 µM
[36] = second compound 10 µM, first compound 10 µM
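Note: spheroids exposed to drugs for seven days before readout.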
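Throughout, for viability, T/C: percent viability relative to DMSO vehicle control taken as 100%.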

O=C(c1cc(Cc2n[nH]c(=O)c3ccccc23)ccc1F)N1CCN(C(=O)C2CC2)CC1 + Cc1cccc(N(C)C(=O)C2C(O)CCN2c2nc(C)cc(C(F)(F)F)c2C#N)c1
IC50 (second compound 0.0316 µM): 6.37 µM
IC50 (second compound 0.1 µM): 7.6 µM
IC50 (second compound 0.316 µM): 8.22 µM
IC50 (second compound 1 µM): 8.16 µM
IC50 (second compound 3.16 µM): 6.72 µM
IC50 (second compound 10 µM): 6.14 µM
viability, T/C [1]: 79.5%
viability, T/C [2]: 89.5%
viability, T/C [3]: 83.8%
viability, T/C [4]: 80.9%
viability, T/C [5]: 76.8%
viability, T/C [6]: 32.7%
viability, T/C [7]: 89.2%
viability, T/C [8]: 89.6%
viability, T/C [9]: 75.7%
viability, T/C [10]: 75.8%
viability, T/C [11]: 74.1%
viability, T/C [12]: 42.5%
viability, T/C [13]: 90.2%
viability, T/C [14]: 80.2%
viability, T/C [15]: 82.8%
viability, T/C [16]: 85.3%
viability, T/C [17]: 71.7%
viability, T/C [18]: 45.1%
viability, T/C [19]: 88.3%
viability, T/C [20]: 87.9%
viability, T/C [21]: 77.7%
viability, T/C [22]: 83.5%
viability, T/C [23]: 95.4%
viability, T/C [24]: 42.2%
viability, T/C [25]: 73.5%
viability, T/C [26]: 78.4%
viability, T/C [27]: 81.5%
viability, T/C [28]: 76.7%
viability, T/C [29]: 97.2%
viability, T/C [30]: 33.4%
viability, T/C [31]: 78.2%
viability, T/C [32]: 78.9%
viability, T/C [33]: 85.5%
viability, T/C [34]: 72.4%
viability, T/C [35]: 73.4%
viability, T/C [36]: 33.7%

O=c1[nH]cc(F)c(=O)[nH]1 + Cc1cccc(N(C)C(=O)C2C(O)CCN2c2nc(C)cc(C(F)(F)F)c2C#N)c1
IC50 (second compound 0.0316 µM): > 10 µM
IC50 (second compound 0.1 µM): > 10 µM
IC50 (second compound 0.316 µM): > 10 µM
IC50 (second compound 1 µM): > 10 µM
IC50 (second compound 3.16 µM): > 10 µM
IC50 (second compound 10 µM): > 10 µM
viability, T/C [1]: 95%
viability, T/C [2]: 88.5%
viability, T/C [3]: 88.2%
viability, T/C [4]: 77.2%
viability, T/C [5]: 76.6%
viability, T/C [6]: 61.5%
viability, T/C [7]: 95.5%
viability, T/C [8]: 90.7%
viability, T/C [9]: 93.4%
viability, T/C [10]: 85.8%
viability, T/C [11]: 82%
viability, T/C [12]: 58.7%
viability, T/C [13]: 91.8%
viability, T/C [14]: 88.7%
viability, T/C [15]: 94%
viability, T/C [16]: 74.5%
viability, T/C [17]: 82%
viability, T/C [18]: 68.8%
viability, T/C [19]: 92.2%
viability, T/C [20]: 90.4%
viability, T/C [21]: 82.2%
viability, T/C [22]: 86.3%
viability, T/C [23]: 74.2%
viability, T/C [24]: 67.7%
viability, T/C [25]: 84.9%
viability, T/C [26]: 97.8%
viability, T/C [27]: 79.8%
viability, T/C [28]: 76.5%
viability, T/C [29]: 77.3%
viability, T/C [30]: 52.9%
viability, T/C [31]: 78.7%
viability, T/C [32]: 96.6%
viability, T/C [33]: 96.4%
viability, T/C [34]: 83%
viability, T/C [35]: 75%
viability, T/C [36]: 56.2%

Reference: PubChem BioAssay AID1963848 (Molecular Pharmacology Branch, DTP, NCI, 2024)
